Source: the CheMixHub viscosity set
Several values for one entry are separate records, joined by “and”; a condition that tells them apart may be missing. Equal entries are not always repeated.

Assay: xn = mol fraction of the nth substance listed

CC(=O)O + c1ccccc1
Conditions | viscosity
293.15 K, 101 kPa, x1 = 0.2158 | 0.658 mPa·s
293.15 K, 101 kPa, x1 = 0.3643 | 0.684 mPa·s
293.15 K, 101 kPa, x1 = 0.4322 | 0.67 mPa·s
293.15 K, 101 kPa, x1 = 0.5213 | 0.684 mPa·s
293.15 K, 101 kPa, x1 = 0.7321 | 0.723 mPa·s
293.15 K, 101 kPa, x1 = 0.9233 | 0.808 mPa·s
298.1 K, 101 kPa, x1 = 0.2 | 0.598 mPa·s
298.1 K, 101 kPa, x1 = 0.4 | 0.617 mPa·s
298.1 K, 101 kPa, x1 = 0.5 | 0.636 mPa·s
298.1 K, 101 kPa, x1 = 0.6 | 0.672 mPa·s
298.1 K, 101 kPa, x1 = 0.8 | 0.802 mPa·s
298.15 K, 101 kPa, x1 = 0.2158 | 0.632 mPa·s
298.15 K, 101 kPa, x1 = 0.3643 | 0.661 mPa·s
298.15 K, 101 kPa, x1 = 0.4322 | 0.65 mPa·s
298.15 K, 101 kPa, x1 = 0.5213 | 0.663 mPa·s
298.15 K, 101 kPa, x1 = 0.7321 | 0.668 mPa·s
298.15 K, 101 kPa, x1 = 0.9233 | 0.716 mPa·s
298.15 K, 101.33 kPa, x2 = 0.1 | 0.9008 mPa·s
298.15 K, 101.33 kPa, x2 = 0.1339 | 0.893 mPa·s
298.15 K, 101.33 kPa, x2 = 0.25 | 0.7374 mPa·s and 0.754 mPa·s
298.15 K, 101.33 kPa, x2 = 0.2921 | 0.734 mPa·s
298.15 K, 101.33 kPa, x2 = 0.4 | 0.655 mPa·s
298.15 K, 101.33 kPa, x2 = 0.4179 | 0.666 mPa·s
298.15 K, 101.33 kPa, x2 = 0.5 | 0.6298 mPa·s and 0.653 mPa·s
298.15 K, 101.33 kPa, x2 = 0.7231 | 0.597 mPa·s
298.15 K, 101.33 kPa, x2 = 0.75 | 0.5983 mPa·s
298.15 K, 101.33 kPa, x2 = 0.7711 | 0.596 mPa·s
298.15 K, 101.33 kPa, x2 = 0.8704 | 0.591 mPa·s
298.15 K, 101.33 kPa, x2 = 0.9645 | 0.594 mPa·s
303.15 K, 101 kPa, x1 = 0.2158 | 0.61 mPa·s
303.15 K, 101 kPa, x1 = 0.3643 | 0.628 mPa·s
303.15 K, 101 kPa, x1 = 0.4322 | 0.624 mPa·s
303.15 K, 101 kPa, x1 = 0.5213 | 0.642 mPa·s
303.15 K, 101 kPa, x1 = 0.7321 | 0.653 mPa·s
303.15 K, 101 kPa, x1 = 0.9233 | 0.71 mPa·s
303.15 K, 101 kPa, x2 = 0.1603 | 0.8519 mPa·s
303.15 K, 101 kPa, x2 = 0.39 | 0.6887 mPa·s
303.15 K, 101 kPa, x2 = 0.7224 | 0.5822 mPa·s
313.15 K, 101 kPa, x2 = 0.1603 | 0.7841 mPa·s
313.15 K, 101 kPa, x2 = 0.39 | 0.6245 mPa·s
313.15 K, 101 kPa, x2 = 0.7224 | 0.5111 mPa·s
323.15 K, 101 kPa, x2 = 0.1603 | 0.7112 mPa·s
323.15 K, 101 kPa, x2 = 0.39 | 0.5776 mPa·s
323.15 K, 101 kPa, x2 = 0.7224 | 0.4939 mPa·s

CCOC=O + c1ccccc1
viscosity [mPa·s], 101 kPa
Conditions | x1 = 0.2 | x1 = 0.4 | x1 = 0.5 | x1 = 0.8
293.15 K | 0.558 | 0.501 | 0.482 | 0.435
303.15 K | 0.491 | 0.446 | 0.43 | 0.391
308.15 K | 0.465 | 0.427 | 0.409 | 0.373

C[Si]1(C)O[Si](C)(C)O[Si](C)(C)O[Si](C)(C)O1 + c1ccccc1
101 kPa
Conditions | viscosity [mPa·s]
298.15 K, x1 = 0.0341 | 0.6224
298.15 K, x1 = 0.0699 | 0.6486
298.15 K, x1 = 0.1407 | 0.7099
298.15 K, x1 = 0.2235 | 0.7944
298.15 K, x1 = 0.2938 | 0.875
298.15 K, x1 = 0.3751 | 0.9814
298.15 K, x1 = 0.4689 | 1.113
298.15 K, x1 = 0.6211 | 1.363
298.15 K, x1 = 0.6777 | 1.466
298.15 K, x1 = 0.751 | 1.608
298.15 K, x1 = 0.8434 | 1.804
298.15 K, x1 = 0.8753 | 1.88
298.15 K, x1 = 0.9028 | 1.939
298.15 K, x1 = 0.9291 | 2.01
308.15 K, x1 = 0.0886 | 0.5768
308.15 K, x1 = 0.3517 | 0.818
308.15 K, x1 = 0.602 | 1.127
308.15 K, x1 = 0.7741 | 1.39
308.15 K, x1 = 0.8544 | 1.527
308.15 K, x1 = 0.9373 | 1.682
318.15 K, x1 = 0.0888 | 0.507
318.15 K, x1 = 0.3526 | 0.714
318.15 K, x1 = 0.6036 | 0.971
318.15 K, x1 = 0.7763 | 1.186
318.15 K, x1 = 0.8562 | 1.298
318.15 K, x1 = 0.9134 | 1.393
